The structures appear in SMILES notation. pIC50: −log10 of the molar value.

Sequence of human ACC2 (O00763 129-2458): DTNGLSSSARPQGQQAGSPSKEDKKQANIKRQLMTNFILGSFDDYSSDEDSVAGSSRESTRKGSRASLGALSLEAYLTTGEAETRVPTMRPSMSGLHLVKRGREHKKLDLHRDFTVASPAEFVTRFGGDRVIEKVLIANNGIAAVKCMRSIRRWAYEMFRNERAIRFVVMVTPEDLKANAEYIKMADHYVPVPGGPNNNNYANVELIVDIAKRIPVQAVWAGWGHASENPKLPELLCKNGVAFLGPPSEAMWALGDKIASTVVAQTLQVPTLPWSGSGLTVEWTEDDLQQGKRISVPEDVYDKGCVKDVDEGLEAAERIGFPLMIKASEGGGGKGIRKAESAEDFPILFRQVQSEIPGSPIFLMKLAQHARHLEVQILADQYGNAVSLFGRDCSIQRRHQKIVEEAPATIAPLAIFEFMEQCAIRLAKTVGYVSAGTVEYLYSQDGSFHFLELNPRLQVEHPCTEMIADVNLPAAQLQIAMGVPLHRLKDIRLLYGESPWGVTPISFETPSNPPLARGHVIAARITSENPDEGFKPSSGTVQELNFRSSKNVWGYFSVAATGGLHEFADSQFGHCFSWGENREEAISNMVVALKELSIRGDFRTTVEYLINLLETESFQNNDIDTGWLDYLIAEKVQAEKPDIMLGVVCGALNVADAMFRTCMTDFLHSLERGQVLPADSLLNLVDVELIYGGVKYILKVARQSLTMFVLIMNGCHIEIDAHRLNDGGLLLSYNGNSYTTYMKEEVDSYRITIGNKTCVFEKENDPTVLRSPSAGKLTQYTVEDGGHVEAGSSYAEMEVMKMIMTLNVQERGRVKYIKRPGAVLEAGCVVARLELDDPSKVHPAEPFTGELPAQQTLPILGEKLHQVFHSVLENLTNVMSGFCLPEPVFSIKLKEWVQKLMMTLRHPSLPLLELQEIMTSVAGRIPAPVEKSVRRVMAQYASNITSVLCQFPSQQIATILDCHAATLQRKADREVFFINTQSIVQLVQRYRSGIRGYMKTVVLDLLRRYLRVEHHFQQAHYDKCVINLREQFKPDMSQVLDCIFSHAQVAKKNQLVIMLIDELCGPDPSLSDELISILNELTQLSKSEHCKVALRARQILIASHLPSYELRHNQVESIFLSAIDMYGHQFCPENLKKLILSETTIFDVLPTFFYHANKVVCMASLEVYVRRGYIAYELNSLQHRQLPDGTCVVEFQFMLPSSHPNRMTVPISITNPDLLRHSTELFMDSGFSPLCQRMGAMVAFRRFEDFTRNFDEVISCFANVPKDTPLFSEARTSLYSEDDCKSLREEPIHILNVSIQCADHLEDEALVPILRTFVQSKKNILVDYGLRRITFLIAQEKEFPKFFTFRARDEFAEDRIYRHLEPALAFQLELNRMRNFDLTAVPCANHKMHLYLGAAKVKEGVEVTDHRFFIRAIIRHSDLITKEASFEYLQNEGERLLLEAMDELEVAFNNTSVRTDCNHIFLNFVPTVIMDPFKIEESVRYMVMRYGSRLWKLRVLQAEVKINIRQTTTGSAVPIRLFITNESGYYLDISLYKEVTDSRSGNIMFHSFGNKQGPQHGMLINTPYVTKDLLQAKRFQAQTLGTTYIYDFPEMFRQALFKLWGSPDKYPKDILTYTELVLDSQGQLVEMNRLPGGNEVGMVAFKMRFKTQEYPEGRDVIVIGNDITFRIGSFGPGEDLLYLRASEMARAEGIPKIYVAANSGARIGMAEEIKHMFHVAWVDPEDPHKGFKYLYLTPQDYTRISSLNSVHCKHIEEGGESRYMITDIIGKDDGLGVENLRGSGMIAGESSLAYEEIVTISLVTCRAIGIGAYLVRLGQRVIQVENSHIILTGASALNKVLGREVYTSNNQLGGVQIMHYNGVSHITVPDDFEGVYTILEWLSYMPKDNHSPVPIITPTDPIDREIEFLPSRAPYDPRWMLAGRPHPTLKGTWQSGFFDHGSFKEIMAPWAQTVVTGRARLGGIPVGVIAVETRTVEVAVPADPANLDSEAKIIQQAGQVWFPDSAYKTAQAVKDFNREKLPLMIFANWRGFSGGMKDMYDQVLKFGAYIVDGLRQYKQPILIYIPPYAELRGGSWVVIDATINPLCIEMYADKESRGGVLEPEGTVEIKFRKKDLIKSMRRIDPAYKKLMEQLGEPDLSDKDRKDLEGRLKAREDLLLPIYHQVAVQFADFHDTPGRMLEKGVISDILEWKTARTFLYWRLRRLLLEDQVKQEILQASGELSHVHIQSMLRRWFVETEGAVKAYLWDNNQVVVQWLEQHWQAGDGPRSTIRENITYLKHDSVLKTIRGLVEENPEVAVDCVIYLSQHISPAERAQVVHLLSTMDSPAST

The test addresses human ACC2 (Homo sapiens (Human), UniProt O00763). Nature of the test: ACC2 assay, spectrophotometric 384 well assay (NADH-linked, coupled lactate dehydrogenase/pyruvate kinase reaction). Particulars: hACC2 construct lacking the 128 N-terminal amino acids; 25° C., 340 nm over 15 minutes. It is filed as biochemical. In short, it runs like this:
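N-terminally truncated human ACC2 (lacking 128 residues) expressed in insect cells; coupled PK/LDH read-out of ADP as NADH loss at 340 nm, 15 min, 25 °C. Tris pH 7.5 with citrate and KHCO3; 200 μM acetyl-CoA, 500 μM ATP, 1% DMSO.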
Turning to `CC(=O)NC(C)Cc1ccc(C#Cc2cnc(NC3CC3)nc2)cc1` (stereo not shown) [Example 13.78], the pIC50 (usually the negative decadic logarithm of the IC50, by convention in mol/L) is 6.89.

With `CC(=O)NC(C)Cc1ccc(C#Cc2cnc(NCc3ccc(C)cc3)nc2)cc1` (stereo not shown) [Example 13.79], the pIC50 was 6.96.

Take `COc1ccccc1CNc1ncc(C#Cc2ccc(CC(C)NC(C)=O)cc2)cn1` (stereo not shown) [Example 13.80]: the pIC50 was 6.32.

`CCC(CC)Nc1ncc(C#Cc2ccc(CC(C)NC(C)=O)cc2)cn1` (stereo not shown) [Example 13.81] showed a pIC50 of 6.48.

Take `CC(=O)NC(C)Cc1ccc(C#Cc2cnc(NCc3ccncc3)nc2)cc1` (stereo not shown) [Example 13.82]: the pIC50 is 5.92.

`CC(=O)NC(C)Cc1ccc(C#Cc2cnc(NCCC(C)(C)C)nc2)cc1` (stereo not shown) [Example 13.83] showed a pIC50 of 6.72.

Molecule `CCC(C)CNc1ncc(C#Cc2ccc(CC(C)NC(C)=O)cc2)cn1` (stereo not shown) [Example 13.84] gave a pIC50 of 6.00.

In turn, `C=C1CCN(c2ncc(C#Cc3ccc(CC(C)NC(C)=O)cc3)cn2)CC1` (stereo not shown) [Example 13.85] showed a pIC50 of 7.10.

`COc1ccc(CNc2ncc(C#Cc3ccc(CC(C)NC(C)=O)cc3)cn2)cc1` (stereo not shown) [Example 13.86] showed a pIC50 of 6.92.

In turn, `CC(=O)NC(C)Cc1ccc(C#Cc2cnc(NCCc3ccccc3)nc2)cc1` (stereo not shown) [Example 13.87] had a pIC50 of 6.00.

Turning to `C[C@H](NC(=O)C1CC1)c1ccc(C#Cc2cnc(NC3CCC3)nc2)cc1` [Example 13.88], the pIC50 is 5.51.

`CC(=O)N[C@@H](C)c1ccc(C#Cc2cnc(NC3CCC3)nc2)cc1` [Example 13.89] gave a pIC50 of 6.00.

`CC(=O)N[C@@H](C)c1ccc(C#Cc2cnc(NC3CC3)nc2)cc1` [Example 13.90]: the pIC50 is 6.02.

For the molecule `C[C@H](NC(=O)C1CC1)c1ccc(C#Cc2cnc(NC3CC3)nc2)cc1` [Example 13.91], the pIC50 was 5.54.

`CC(=O)N[C@@H](C)c1ccc(C#Cc2cnc(NCc3ccccc3)nc2)cc1` [Example 13.92]: the pIC50 was 5.14.

As for `CC(=O)N[C@@H](C)c1ccc(C#Cc2cnc(N3CC4CCCC4C3)nc2)cc1` (stereo partly shown) [Example 13.93], the pIC50 was 6.57.

`CC(=O)N[C@@H](C)c1ccc(C#Cc2cnc(NCCC(F)(F)F)nc2)cc1` [Example 13.94]: the pIC50 is 5.44.

In turn, `CCNc1ncc(C#Cc2ccc([C@H](C)NC(C)=O)cc2)cn1` [Example 13.95] showed a pIC50 of 5.55.

With `CSc1nccc(C#Cc2ccc(CC(C)NC(C)=O)cc2)n1` (stereo not shown) [Example 14.1, N-{1-Methyl-2-[4-(2-methylsulfanyl-pyrimidin-4-ylethynyl)-phenyl]-ethyl}acetamide], the negative-log IC50 (pIC50) was 5.92.

Molecule `CCOc1ccc(C#Cc2ccc(C(C)NC(C)=O)cc2)cn1` (stereo not shown) [Example 14.2] showed a pIC50 of 5.23.

In turn, `CCCOc1cc(C#Cc2ccc(C(C)NC(C)=O)cc2)ccn1` (stereo not shown) [Example 14.3] showed a pIC50 of 6.35.

`CCOc1cc(C#Cc2ccc(C(C)NC(C)=O)cc2)ncn1` (stereo not shown) [Example 14.4] gave a pIC50 of 5.82.

Take `CCCn1ccc(C#Cc2ccc(CC(C)NC(C)=O)cc2)cc1=O` (stereo not shown) [Example 14.5]: the pIC50 was 5.39.

For the molecule `CC(=O)NC(C)Cc1ccc(C#Cc2ccc(OC3CCC3)cc2)cc1` (stereo not shown) [Example 14.6], the pIC50 is 6.92.

For `CC(=O)N[C@@H](C)c1ccc(C#Cc2ccc(OC3CCC3)cc2)cc1` [Example 14.7], the pIC50 is 7.15.

With `COc1ccc(C#Cc2ccc(CCC(C)NC(C)=O)cc2)cn1` (stereo not shown) [Example 14.8], the pIC50 was 5.89.

In turn, `CC(=O)NC(C)CCc1ccc(C#Cc2ccc(OC(C)C)cc2)cc1` (stereo not shown) [Example 14.9] showed a pIC50 of 6.74.

In the case of `CCOc1ccc(C#Cc2ccc(CCC(C)NC(C)=O)cc2)cc1` (stereo not shown) [Example 14.10], the pIC50 is 7.00.

In the case of `CCCOc1ccc(C#Cc2ccc(CCC(C)NC(C)=O)cc2)cc1` (stereo not shown) [Example 14.11], the pIC50 was 6.89.

For `CC(=O)NC(C)CCc1ccc(C#Cc2ccc(OCC3CC3)cc2)cc1` (stereo not shown) [Example 14.12], the pIC50 is 6.77.

For `CC(=O)NC(C)CCc1ccc(C#Cc2ccc(OCC(C)C)cc2)cc1` (stereo not shown) [Example 14.13], the pIC50 was 6.66.

With `CC(=O)NC(C)CCc1ccc(C#Cc2ccc(OC3CCCC3)cc2)cc1` (stereo not shown) [Example 14.14], the pIC50 was 6.80.

The molecule `CCC(C)Oc1ccc(C#Cc2ccc(CCC(C)NC(C)=O)cc2)cc1` (stereo not shown) [Example 14.15] gave a pIC50 of 6.85.

The molecule `CCCOc1cc(C#Cc2ccc(CCC(C)NC(C)=O)cc2)ccn1` (stereo not shown) [Example 14.16] had a pIC50 of 6.92.

With `CC(C)COc1ccc(C#Cc2ccc(CC(C)NC(=O)C3CC3)cc2)cc1` (stereo not shown) [Example 14.17], the pIC50 is 6.29.

As to `CC(Cc1ccc(C#Cc2ccc(OCC3CC3)cc2)cc1)NC(=O)C1CC1` (stereo not shown) [Example 14.18], the pIC50 was 6.85.

Molecule `CCOc1ccc(C#Cc2ccc([C@H](C)NC(C)=O)cc2)cc1` [Example 14.19] gave a pIC50 of 6.72.

Turning to `CC(=O)N[C@@H](C)c1ccc(C#Cc2ccc(OC(C)C)cc2)cc1` [Example 14.20], the pIC50 was 6.29.

With `CC(=O)NC(C)Cc1ccc(C#Cc2ccc(OCCC(C)C)nn2)cc1` (stereo not shown) [Example 14.21], the pIC50 is 5.51.

As to `CCCOc1cc(C#Cc2ccc([C@@H](C)NC(C)=O)cc2)ccn1` [Example 14.22], the pIC50 was 4.87.

In turn, `CCCOc1ccc(C#Cc2ccc([C@H](C)NC(C)=O)cc2)cc1` [Example 14.23] gave a pIC50 of 6.85.

`CCCOc1cc(C#Cc2ccc([C@H](C)NC(C)=O)cc2)ccn1` [Example 14.24] showed a pIC50 of 6.70.

With `CCOc1ccc(C#Cc2ccc([C@H](C)NC(C)=O)cc2)cn1` [Example 14.25], the negative logarithm of the IC50 (pIC50) is 5.74.

On to `CC(=O)N[C@@H](C)c1ccc(C#Cc2ccc(OCC(C)C)cc2)cc1` [Example 14.26], for which the pIC50 was 6.85.

In turn, `CC(Cc1ccc(C#Cc2ccc(Oc3cncnc3)nc2)cc1)NC(=O)C1CC1` (stereo not shown) [Example 14.27] showed a pIC50 of 5.43.

In turn, `CC(C)Oc1ccc(C#Cc2ccc([C@H](C)NC(=O)C3CC3)cc2)cc1` [Example 14.28] had a pIC50 of 5.47.

`CC(Cc1ccc(C#Cc2ccc(OC3CCC3)cc2)cc1)NC(=O)C1CC1` (stereo not shown) [Example 14.29] showed a pIC50 of 6.17.

`CC(Cc1ccc(C#Cc2ccc(OC3CC3)cc2)cc1)NC(=O)C1CC1` (stereo not shown) [Example 14.30] gave a pIC50 of 6.82.

Take `CCCCOc1ccc(C#Cc2ccc(CC(C)NC(=O)C3CC3)cc2)cc1` (stereo not shown) [Example 14.31]: the negative-log IC50 (pIC50) is 7.05.

Turning to `CC(Cc1ccc(C#Cc2cccc(OC(C)C)c2)cc1)NC(=O)C1CC1` (stereo not shown) [Example 14.32], the pIC50 is 6.15.

`CCC(CC)Oc1ccc(C#Cc2ccc(CC(C)NC(=O)C3CC3)cc2)cc1` (stereo not shown) [Example 14.33] gave a pIC50 of 5.80.

In the case of `CC(=O)NCCc1ccc(C#Cc2ccc(OCC(C)C)cc2)cc1` [Example 14.34], the pIC50 was 6.22.

`CC(=O)NCCc1ccc(C#Cc2ccc(OC(C)C)cc2)cc1` [Example 14.35] showed a pIC50 of 6.14.

For `CCOc1ccc(C#Cc2ccc(CCNC(C)=O)cc2)cn1` [Example 14.36], the pIC50 is 5.64.

`CCCOc1ccc(C#Cc2ccc(CCNC(C)=O)cc2)cc1` [Example 14.37] gave a pIC50 of 6.77.

As for `CC(=O)NCCc1ccc(C#Cc2ccc(Oc3ccccc3)nc2)cc1` [Example 14.38], the pIC50 is 5.85.

`CCCOc1cc(C#Cc2ccc(CCNC(C)=O)cc2)ccn1` [Example 14.39] showed a pIC50 of 5.96.

`CCCOc1ccc(C#Cc2ccc(CC(C)NC(=O)C3CC3)cc2)cc1` (stereo not shown) [Example 14.40] gave a pIC50 of 7.10.

The molecule `CC(Cc1ccc(C#Cc2ccc(OC(C)C)cc2)cc1)NC(=O)C1CC1` (stereo not shown) [Example 14.41] gave a pIC50 of 6.36.

`CC(Cc1ccc(C#Cc2ccc(Oc3ccccc3)nc2)cc1)NC(=O)C1CC1` (stereo not shown) [Example 14.43] gave a pIC50 of 6.44.

`CCCOc1cc(C#Cc2ccc(CC(C)NC(=O)C3CC3)cc2)ccn1` (stereo not shown) [Example 14.44] had a pIC50 of 6.44.

The molecule `CC(Cc1ccc(C#Cc2ccc(C(C)(C)C)cc2)cc1)NC(=O)C1CC1` (stereo not shown) [Example 14.45] had a pIC50 of 6.00.

Take `CCC(C)Oc1ccc(C#Cc2ccc(CC(C)NC(=O)C3CC3)cc2)cc1` (stereo not shown) [Example 14.46]: the pIC50 was 6.68.

With `CC(Cc1ccc(C#Cc2ccc(OC3CCCC3)cc2)cc1)NC(=O)C1CC1` (stereo not shown) [Example 14.47], the pIC50 was 7.10.

In turn, `CC(C)COc1ccc(C#Cc2ccc([C@H](C)NC(=O)C3CC3)cc2)cc1` [Example 14.48] showed a pIC50 of 6.24.

Regarding `CCOc1ccc(C#Cc2ccc([C@H](C)NC(=O)C3CC3)cc2)cc1` [Example 14.49], the pIC50 was 6.49.

`CC(=O)NC(C)Cc1ccc(C#Cc2ccc(OC(F)(F)F)cc2)cc1` (stereo not shown) [Example 14.50] had a negative-log IC50 (pIC50) of 5.82.

As for `CCOc1ccc(C#Cc2ccc(C(C)NC(C)=O)cc2)cc1` (stereo not shown) [Example 14.51], the pIC50 is 6.40.

On to `CCOc1cccc(C#Cc2ccc(CC(C)NC(=O)C3CC3)cc2)c1` (stereo not shown) [Example 14.52], for which the pIC50 was 5.42.

Molecule `CCOc1ccc(C#Cc2ccc(CCC(C)NC(C)=O)cc2)cn1` (stereo not shown) [Example 14.53] had a pIC50 of 6.55.

In turn, `CC(=O)NC(C)CCc1ccc(C#Cc2cnc(OC3CCC3)nc2)cc1` (stereo not shown) [Example 14.54] showed a pIC50 of 6.62.

For `CC(=O)NC(C)Cc1ccc(C#Cc2ccc3c(c2)OCC(C)(C)CO3)cc1` (stereo not shown) [Example 14.55], the pIC50 is 6.92.

`CCOc1ccc(C#Cc2ccc(CCNC(=O)CC)cc2)cc1` [Example 16.1, N-(4-((4-Ethoxyphenyl)ethynyl)phenethyl)propionamide]: the pIC50 is 5.96.

On to `CCOc1ccc(C#Cc2ccc(CN3CCCC3=O)cc2)cc1` [Example 16.2], for which the pIC50 was 5.49.

The molecule `CCOc1ccc(C#Cc2ccc(CCNC(C)=O)cc2)cc1` [Example 16.3] gave a pIC50 of 6.37.

`CCOc1ccc(C#Cc2ccc(CC(C)N(C)C(C)=O)cc2)cc1` (stereo not shown) [Example 18.1, N-{2-[4-(4-Ethoxy-phenylethynyl)-phenyl]-1-methyl-ethyl}-N-methyl-acetamide] had a pIC50 of 4.86.

The record behind these values is US8835472B2, “Compounds, pharmaceutical compositions and uses thereof” (Boehringer Ingelheim International GmbH, priority 2010, dated 2014).
